# According to patent publication US20080050413A1, “Medical stent provided with a combination of melatonin and paclitaxel” (priority 2006, published 2008):
# Where “and” joins values, the source holds several entries; their conditions need not be identical. Equal entries are not always repeated.
# Key:
# HCAEC [1] = assay: Chemotaxis towards VEGF-A, modified Boyden chamber, HCAEC; format: cell-based, human; conditions: 2 mM Melatonin for 48 hours; VEGF-A 10 ng/ml; migration 4 hours; performed only once
# Experimental: Chemotaxis experiments were performed using a modified Boyden chamber. The apparatus consists of two multi-well chambers separated by a filter containing pores of uniform size. A solution containing a chemokine or chemotactic factor is placed in the lower/bottom chamber and a cell suspension is placed in the upper chamber. Cells can migrate through the pores across the filter and towards the chemoattractant in the lower chamber. Cells that migrated across the filter and remain attached to the lower side of the membrane are counted. Data are expressed in terms of migration index: the number of cells that migrated in response to agonist stimulation compared to the number of cells that migrated randomly, i.e. to medium only. Chemotaxis experiments so far were only performed with HCAEC. For these cells a 25×80 mm polycarbonate filter, […] (PVP) free was used (Whatman) with a pore size of […]. Before migration the filter was coated with collagen. Endothelial cells were incubated with Melatonin at 2 mM prior to and during migration. […] Cells were stimulated with VEGF-A at 10 ng/ml. Cells were allowed to migrate for 4 hours at 37° C./5% CO2. At the end of migration, cells were fixed on the filter, stained with Giemsa and counted using a regular optic microscope.
# [2] = test system: HUVEC (Human Umbilical Vein Endothelial Cells); assay: [3H]-thymidine incorporation, HUVEC stimulated with VEGF-A; format: cell-based; conditions: VEGF A 10 ng/ml 24 hours
# Experimental: To investigate, whether melatonin has similar effects on other cell types, HUVEC (Human Umbilical Vein Endothelial Cells, Promocell) were tested. HUVEC were cultured in the corresponding complete medium (Endothelial Cell Growth Medium: ECGS/H 0.4%, Fetal Calf Serum 2%, Epidermal Growth Factor 0.1 ng/ml, Hydrocortisone 1 μg/ml, basic Fibroblast Factor 1 ng/ml, Amphotericin B 50 ng/ml, Gentamicin 50 μg/ml). 24 hours prior to stimulation, the medium was replaced by a medium containing 2% serum and antibiotics, but devoid of the other complements. Then, HUVEC were stimulated with 10 ng/ml of VEGF-A for 24 hours. HUVEC were incubated for 48 hours with Melatonin and stimulated for 24 hours with VEGF-A at 10 ng/ml. After 24 hours of stimulation, the cells were incubated with radioactive [^3H]-thymidine. Two hour later, the medium was removed and cell-bound DNA was precipitated using 5% TCA (Trichloroacetic acid). Then, [^3H]-thymidine incorporation was measured using a beta-counter.
# HCASMC = assay: CytoTox-ONE LDH release cytotoxicity assay, HCASMC; format: cell-based, human; conditions: 48 hours, Melatonin 0.2 to 6 mM
# Experimental: (§1) Cytotoxicity experiments were performed with cells cultured on 96-well plates. The CytoTox-ONE™ Assay from Promega was used to assess the membrane integrity of cells. This test is based on a fluorometric method to estimate the number of non viable cells present in multiwell plates by measuring the release of lactate dehydrogenase (LDH) from cells with damaged membranes. Subconfluent cells were incubated for 48 hours with Melatonin at concentrations between 0.2 and 6 mM. During the 48 h Melatonin incubation, the medium was not changed to avoid removal of any detached cells. As a positive control three wells of untreated cells were incubated with lysis buffer (delivered with the assay) before measurement. At the end of the Melatonin incubation period, a volume of CytoTox-ONE reagent equal to the volume of cell culture medium present in each well was added. After 10 min incubation at 22° C. (room temperature), 50 μl of stop solution was added per 100 μl of CytoTox-ONE reagent added. The plate was shaken for 10 seconds and fluorescence was recorded with an excitation wavelength of 560 nm and an emission wavelength of 590 nm (Spectramax M2 fluorescence plate reader, Molecular devices).
# [3] = test system: human coronary artery smooth muscle cells (HCASMC); assay: CellTiter 96 One solution (MTS) cell proliferation assay, HCASMC; format: cell-based
# Experimental: (§2) Human coronary artery endothelial cells (HCAEC) were purchased from Cambrex and human coronary artery smooth muscle cells (HCASMC) were purchased from Promocell. Cells were used for experiments between passage 4 and passage 12. Both cell types were cultured in their respective complete culture medium with the following composition: HCASMC: Smooth Muscle Cell Growth Medium 2: Epidermal Growth Factor (EGF), basic Fibroblast Factor (FGF), Insulin, Fetal Calf Serum (FCS) 5%, Amphotericin B, Gentamicin. Medium was changed every other day. 24 hours prior to growth factor stimulation, the medium was replaced by fresh culture medium, however, without growth factors to increase the cellular sensitivity to the subsequent growth factor stimulation. Subconfluent HCAEC were stimulated with 10 ng/ml of VEGF-A, whereas subconfluent HCASMC were stimulated with 10 ng/ml of PDGF-BB. Likewise, both cell types were stimulated with 25% of human serum (final concentration). All proliferation and cytotoxicity experiments were performed on cells cultured on 96 well plates (Costar). The CellTiter 96 One solution cell proliferation assay from Promega was used to assess cell proliferation in a 96-well plate. This assay makes use of the MTS tetrazolium compound as a cellular substrate. MTS is bioreduced by living cells into a colored formazan product that is soluble in tissue culture medium and absorbs light at 490 nm. The quantity of formazan produced is directly proportional to the number of living cells in culture. After 24 h stimulation, 20 μl of MTS reagent was added to the cells cultured in 100 μl of medium per well. After 2 to 4 hours of incubation at 37° C., 5% CO2, the absorbance at 490 nm was recorded using a 96-well plate reader (Tecan).
# HCAEC [4] = assay: CytoTox-ONE LDH release cytotoxicity assay, HCAEC; format: cell-based, human; conditions: 48 hours, Melatonin 0.2 to 6 mM
# Experimental: as §1
# [5] = test system: human coronary artery endothelial cells (HCAEC); assay: CellTiter 96 One solution (MTS) cell proliferation assay, HCAEC; format: cell-based
# Experimental: as §2, with “HCAEC: Endothelial” for “HCASMC: Smooth Muscle Cell”, “Media-2 MV: hEGF, Hydrocortisone, GA-1000, FBS” for “Medium 2: Epidermal Growth Factor (EGF), basic Fibroblast Factor (FGF), Insulin, Fetal Calf Serum (FCS)”, “VEGF, hFGF-B, R3-IGF-1, Ascorbic Acid” for “Amphotericin B, Gentamicin.”
structure (smiles),measurement,setting,value
"COc1ccc2[nH]cc(CCNC(C)=O)c2c1 [Melatonin, N-acetyl-5-methoxytryptamine]",effect on chemotactic response towards VEGF-A,HCAEC [1],did not have any significant effect
same,effect on HUVEC ([3H]-thymidine incorporation),"[2]; 0.2 mM Melatonin, 48 hours",inhibitory effect
same,VEGF-A induced [3H]-thymidine incorporation,[2]; Melatonin 48 hours,completely inhibited
same,cytotoxic effect (LDH release),HCASMC,does not induce any detectable cytotoxic effect
same,effect on number of smooth muscle cells,"[3]; 1 mM Melatonin, 24 hours pre-treatment, PDGF BB 10 ng/ml 24 h",significant decrease in the number of smooth muscle cells
same,concentration at which proliferation is strongly inhibited,[3]; HCASMC,higher than 0.2 mM
same,effect on proliferation of HCASMC,"[3]; Melatonin up to 0.1 mM, PDGF BB 10 ng/ml 24 h",no significant effect
same,concentration of maximal inhibitory effect,[3]; tested up to 10 mM,5 mM
same,cytotoxic effect (LDH release),HCAEC [4],does not induce any detectable cytotoxic effect
same,concentration at which proliferation is strongly inhibited,[5]; HCAEC,higher than 0.2 mM
same,effect on cell number,[5]; Melatonin between 1 mM and 6 mM,dramatic decrease in cell number
same,concentration of maximal effect,[5]; tested 1 μM to 6 mM,3 mM and 6 mM
same,sensitivity of HCAEC to Melatonin,[5]; up to 0.1 mM Melatonin,not sensitive
